What was measured:
JMJD2C = JMJD2C (Homo sapiens (Human), UniProt Q9H3R0); test: In vitro enzyme inhibition assay for JMJD2C activity (TR-FRET); format: biochemical; conditions: Table 5; one class given per A and B pair
Experimental: This assay determines the ability of a test compound to inhibit JMJD2C demethylase activity. Baculovirus expressed JMJD2C (GenBank Accession #BC143571, AA 2-372) was purchased from BPS Bioscience (Cat#50105).
The ability of test compounds to inhibit the activity of JMJD2C was determined in 384-well plate format under the following reaction conditions: 0.3 nM JMJD2C, 300 nM H3K9me3-biotin labeled peptide (Anaspec cat #64360), 2 μM alpha-ketoglutaric acid in assay buffer of 50 mM HEPES, pH7.3, 0.005% Brij35, 0.5 mM TCEP, 0.2 mg/ml BSA, 50 μM sodium L-ascorbate, and 2 μM ammonium iron(II) sulfate. Reaction product was determined quantitatively by TR-FRET after the addition of detection reagent Phycolink Streptavidin-allophycocyanin (Prozyme) and Europium-anti-di-methylated histone H3 lysine 9 (H3K9me2) antibody (PerkinElmer) in the presence of 5 mM EDTA in LANCE detection buffer (PerkinElmer) at a final concentration of 50 nM and 1 nM, respectively.
(§1) The assay reaction was initiated by the following: 2 μl of the mixture of 900 nM H3K9me3-biotin labeled peptide and 6 μM alpha-ketoglutaric acid with 2 μl of 11-point serial diluted inhibitor in 3% DMSO were added to each well of the plate, followed by the addition of 2 μl of 0.9 nM JMJD2C to initiate the reaction. The reaction mixture was incubated at RT for 30 min, and terminated by the addition of 6 μl of 5 mM EDTA in LANCE detection buffer containing 100 nM Phycolink Streptavidin-allophycocyanin and 2 nM Europium-anti-H3K9me2 antibody. Plates were read by EnVisionMultilabel Reader in TR-FRET mode (excitation at 320 nm, emission at 615 nm and 665 nm) after 1 hr incubation at RT. A ratio was calculated (665/615) for each well and fitted to determine inhibition constant (IC50).

Jarid1B = Jarid1B (Homo sapiens (Human), UniProt Q9UGL1); test: In vitro enzyme inhibition assay for Jarid1B activity (TR-FRET); format: biochemical; conditions: Table 5; one class given per A and B pair
Jarid1B, sequence (Q9UGL1 whole entry, species assumed): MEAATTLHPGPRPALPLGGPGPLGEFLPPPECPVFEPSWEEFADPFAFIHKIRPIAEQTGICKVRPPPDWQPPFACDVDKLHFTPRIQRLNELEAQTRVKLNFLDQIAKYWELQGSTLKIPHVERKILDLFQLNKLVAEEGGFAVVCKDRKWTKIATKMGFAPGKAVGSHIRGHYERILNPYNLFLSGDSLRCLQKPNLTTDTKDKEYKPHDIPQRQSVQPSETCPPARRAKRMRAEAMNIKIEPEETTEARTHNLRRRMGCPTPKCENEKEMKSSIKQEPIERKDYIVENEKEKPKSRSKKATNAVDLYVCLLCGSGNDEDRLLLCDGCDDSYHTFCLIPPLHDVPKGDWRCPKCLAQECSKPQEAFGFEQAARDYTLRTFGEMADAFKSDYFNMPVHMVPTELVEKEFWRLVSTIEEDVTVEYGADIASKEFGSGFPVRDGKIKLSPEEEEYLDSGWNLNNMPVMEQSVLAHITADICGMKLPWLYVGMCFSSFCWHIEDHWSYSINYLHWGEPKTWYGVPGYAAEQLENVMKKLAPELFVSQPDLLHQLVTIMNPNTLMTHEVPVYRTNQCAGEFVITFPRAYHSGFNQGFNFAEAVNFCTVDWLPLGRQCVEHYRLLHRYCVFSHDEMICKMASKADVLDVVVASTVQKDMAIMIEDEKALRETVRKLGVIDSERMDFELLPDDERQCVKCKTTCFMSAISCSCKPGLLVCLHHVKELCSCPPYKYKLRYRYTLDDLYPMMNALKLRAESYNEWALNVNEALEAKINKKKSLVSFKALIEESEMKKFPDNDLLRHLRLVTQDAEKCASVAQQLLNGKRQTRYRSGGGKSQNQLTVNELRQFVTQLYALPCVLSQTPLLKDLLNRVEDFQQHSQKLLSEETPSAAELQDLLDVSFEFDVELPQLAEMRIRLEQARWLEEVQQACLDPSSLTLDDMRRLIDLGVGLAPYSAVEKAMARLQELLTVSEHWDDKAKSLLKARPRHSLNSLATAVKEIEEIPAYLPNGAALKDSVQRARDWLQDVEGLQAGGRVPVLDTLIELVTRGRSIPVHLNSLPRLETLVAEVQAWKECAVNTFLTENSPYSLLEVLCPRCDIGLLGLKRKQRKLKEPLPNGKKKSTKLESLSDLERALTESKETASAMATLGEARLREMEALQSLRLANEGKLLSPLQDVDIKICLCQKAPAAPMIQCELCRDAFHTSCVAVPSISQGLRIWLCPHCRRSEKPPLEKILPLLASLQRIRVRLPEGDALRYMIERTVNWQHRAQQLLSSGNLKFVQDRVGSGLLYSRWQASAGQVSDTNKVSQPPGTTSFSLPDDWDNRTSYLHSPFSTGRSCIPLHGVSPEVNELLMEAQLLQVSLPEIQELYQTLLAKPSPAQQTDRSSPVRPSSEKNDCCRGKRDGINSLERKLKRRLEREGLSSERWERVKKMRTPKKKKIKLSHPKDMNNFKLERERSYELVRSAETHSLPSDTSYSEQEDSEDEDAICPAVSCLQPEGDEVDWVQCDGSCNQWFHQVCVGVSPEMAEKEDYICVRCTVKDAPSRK
Experimental: The ability of test compounds to inhibit the activity of Jarid1B was determined in 384-well plate format under the following reaction conditions: 0.8 nM Jarid1B, 300 nM H3K4me3-biotin labeled peptide (Anaspec cat #64357), 2 μM alpha-ketoglutaric acid in assay buffer of 50 mM HEPES, pH7.3, 0.005% Brij35, 0.5 mM TCEP, 0.2 mg/ml BSA, 50 μM sodium L-ascorbate, and 2 μM ammonium iron(II) sulfate. Reaction product was determined quantitatively by TR-FRET after the addition of detection reagent Phycolink Streptavidin-allophycocyanin (Prozyme) and Europium-anti-H3K4me or -H3K4me2 antibody (PerkinElmer) in the presence of 5 mM EDTA in LANCE detection buffer (PerkinElmer) at a final concentration of 25 nM and 1 nM, respectively.
as §1, with “nM H3K4me3-biotin” for “nM H3K9me3-biotin”, “DMSO was” for “DMSO were”, “of 2.4” for “of 0.9”, “nM Jarid1B” for “nM JMJD2C”, “containing 50” for “containing 100”, “nM Europium-anti-H3K4me/H3K4me2” for “nM Europium-anti-H3K9me2”

JMJD3 = JMJD3 (Homo sapiens, UniProt O15054); test: In vitro enzyme inhibition assay for JMJD3 activity (TR-FRET); format: biochemical; conditions: Table 5; one class given per A and B pair
Experimental: This assay determines the ability of a test compound to inhibit JMJD3 demethylase activity. Baculovirus expressed JMJD3 (GenBank Accession #NM-001080424, AA1043-end) was purchased from BPS Bioscience (Cat#50115).
The enzymatic assay of JMJD3 activity is based upon Time Resolved-Fluorescence Resonance Energy Transfer (TR-FRET) detection. The ability of test compounds to inhibit the activity of JMJD3 was determined in 384-well plate format under the following reaction conditions: 5 nM JMJD3, 250 nM H3K27me3-biotin labeled peptide (Anaspec cat #64367), 0.4 to 2 μM α-ketoglutaric acid in assay buffer of 50 mM HEPES, pH7.3, 0.005% Brij35, 0.5 mM TCEP, 0.2 mg/ml BSA, 50 μM sodium L-ascorbate, and 5 μM ammonium iron(II) sulfate. Reaction product was determined quantitatively by TR-FRET after the addition of detection reagent Phycolink Streptavidin-allophycocyanin (Prozyme) and Europium-anti-H3K27me2 antibody (PerkinElmer) in the presence of 5 mM EDTA in LANCE detection buffer (PerkinElmer) at a final concentration of 50 nM and 1 nM, respectively.
The assay reaction was initiated by the following: […] of the mixture of 750 nM H3K27me3-biotin labeled peptide and 1.2 to 6 μM alpha-ketoglutaric acid with 2 μL of 11-point serial diluted inhibitor in 3% DMSO were added to each well of plate, followed by the addition of 2 μl of 15 nM JMJD3 to initiate the reaction. The reaction mixture was incubated at RT for 30 min, and terminated by the addition of 6 μL of 5 mM EDTA in LANCE detection buffer containing 100 nM Phycolink Streptavidin-allophycocyanin and 2 nM Europium-anti-H3K27me2 antibody. Plates were read by EnVisionMultilabel Reader in TR-FRET mode (excitation at 320 nm, emission at 615 nm and 665 nm) after 1 hr incubation at RT. A ratio from the readout of 665/615 was calculated for each well and fitted to determine inhibition constant (IC50).

[1] = system: esophageal squamous cell carcinoma KYSE-150 cells; test: Cellular IC50 in KYSE-150 cells; format: cell-based; conditions: Homo sapiens, one class given per A and B pair
Excerpt: Table 7 provides IC50 values of various compounds disclosed herein, tested in cellular human esophageal squamous cell carcinoma KYSE-150 cells: […]

JMJD2C, sequence (Q9H3R0 2-372): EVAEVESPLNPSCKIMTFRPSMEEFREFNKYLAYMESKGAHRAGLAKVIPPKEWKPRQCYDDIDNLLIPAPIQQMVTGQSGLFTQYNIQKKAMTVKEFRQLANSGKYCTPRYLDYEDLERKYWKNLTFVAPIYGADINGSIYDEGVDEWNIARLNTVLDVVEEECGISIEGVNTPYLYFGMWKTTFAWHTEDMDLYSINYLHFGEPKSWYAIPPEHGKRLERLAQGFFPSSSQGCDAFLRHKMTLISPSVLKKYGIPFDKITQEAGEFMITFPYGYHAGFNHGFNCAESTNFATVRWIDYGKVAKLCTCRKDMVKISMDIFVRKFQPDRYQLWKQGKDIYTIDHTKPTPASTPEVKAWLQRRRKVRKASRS

`Cc1ccccc1-c1ccc2c(c1)CCN[C@H]2CNc1cnccc1C(=O)O` [Example 8A, (R)-3-(((6-(o-tolyl)-1,2,3,4-tetrahydroisoquinolin-1-yl)methyl)amino)isonicotinic Acid] was tested, and the IC50 (JMJD2C) was 1000 to 10000 nM, the IC50 (Jarid1B) was no more than 100 nM and the IC50 (JMJD3) was 1 to 10 µM. For the same compound, the IC50 [1] was 100 to 1000 nM.
With `Cc1ccccc1-c1ccc2c(c1)CCN[C@@H]2CNc1cnccc1C(=O)O` [Example 8B, (S)-3-(((6-(o-tolyl)-1,2,3,4-tetrahydroisoquinolin-1-yl)methyl)amino) isonicotinic Acid] the IC50 (JMJD2C) was 1000 to 10000 nM, the IC50 (Jarid1B) was no more than 100 nM and the IC50 (JMJD3) was 1 to 10 µM. It also gave an IC50 [1] of 100 to 1000 nM.
With `CCc1ccccc1-c1ccc2c(c1)CCN[C@H]2CNc1cnccc1C(=O)O` [Example 9A, (R)-3-(((6-(2-ethylphenyl)-1,2,3,4-tetrahydroisoquinolin-1-yl)methyl)amino)isonicotinic Acid] the IC50 (JMJD2C) was 1000 to 10000 nM, the IC50 (Jarid1B) was no more than 100 nM and the IC50 (JMJD3) was 1 to 10 µM. For the same compound, the IC50 [1] was 100 to 1000 nM.
For `CCc1ccccc1-c1ccc2c(c1)CCN[C@@H]2CNc1cnccc1C(=O)O` [Example 9B, (S)-3-(((6-(2-ethylphenyl)-1,2,3,4-tetrahydroisoquinolin-1-yl)methyl)amino)isonicotinic Acid], the IC50 (JMJD2C) was 1000 to 10000 nM, the IC50 (Jarid1B) was no more than 100 nM and the IC50 (JMJD3) was 1 to 10 µM. It also gave an IC50 [1] of 100 to 1000 nM.
`CCc1ccc(N(C)c2ccc3c(c2)CCN[C@H]3CNc2cnccc2C(=O)O)cc1` [Example 10A, (R)-3-(((6-((4-ethylphenyl)(methyl)amino)-1,2,3,4-tetrahydroisoquinolin-1-yl)methyl)amino)isonicotinic acid] gave an IC50 (JMJD2C) of 1000 to 10000 nM, an IC50 (Jarid1B) of no more than 100 nM and an IC50 (JMJD3) of 1 to 10 µM. For the same compound, the IC50 [1] was 100 to 1000 nM.
Work on `CCc1ccc(N(C)c2ccc3c(c2)CCN[C@@H]3CNc2cnccc2C(=O)O)cc1` [Example 10B, (S)-3-(((6-((4-ethylphenyl)(methyl)amino)-1,2,3,4-tetrahydroisoquinolin-1-yl)methyl)amino)isonicotinic acid] yielded an IC50 (JMJD2C) of 1000 to 10000 nM, an IC50 (Jarid1B) of no more than 100 nM and an IC50 (JMJD3) of 1 to 10 µM. It also gave an IC50 [1] of 100 to 1000 nM.
In the case of `Cc1ccc(N(C)c2ccc3c(c2)CCN(C)[C@H]3CNc2cnccc2C(=O)O)cc1` [Example 11A, (R)-3-(((2-methyl-6-(methyl(p-tolyl)amino)-1,2,3,4-tetrahydroisoquinolin-1-yl)methyl)amino)isonicotinic acid], the IC50 (JMJD2C) is reported as 100 to 1000 nM, the IC50 (Jarid1B) is reported as no more than 100 nM and the IC50 (JMJD3) is reported as 1 to 10 µM. The IC50 [1] was no more than 100 nM.
Compound `Cc1ccc(N(C)c2ccc3c(c2)CCN(C)[C@@H]3CNc2cnccc2C(=O)O)cc1` [Example 11B, (S)-3-(((2-methyl-6-(methyl(p-tolyl)amino)-1,2,3,4-tetrahydroisoquinolin-1-yl)methyl)amino)isonicotinic acid] has an IC50 (JMJD2C) of 100 to 1000 nM, an IC50 (Jarid1B) of no more than 100 nM and an IC50 (JMJD3) of 1 to 10 µM. For the same compound, the IC50 [1] was no more than 100 nM.
Work on `Cc1ccccc1-c1ccc2c(c1)CCN(C)[C@H]2CNc1cnccc1C(=O)O` [Example 12A, (R)-3-(((2-methyl-6-(o-tolyl)-1,2,3,4-tetrahydroisoquinolin-1-yl)methyl)amino)isonicotinic acid] yielded an IC50 (JMJD2C) of 1000 to 10000 nM, an IC50 (Jarid1B) of no more than 100 nM and an IC50 (JMJD3) of 1 to 10 µM. For the same compound, the IC50 [1] was no more than 100 nM.
For `Cc1ccccc1-c1ccc2c(c1)CCN(C)[C@@H]2CNc1cnccc1C(=O)O` [Example 12B, (S)-3-(((2-methyl-6-(o-tolyl)-1,2,3,4-tetrahydroisoquinolin-1-yl)methyl)amino)isonicotinic acid], the IC50 (JMJD2C) was 1000 to 10000 nM, the IC50 (Jarid1B) was no more than 100 nM and the IC50 (JMJD3) was 1 to 10 µM. For the same compound, the IC50 [1] was no more than 100 nM.
Compound `CCc1ccc(N(C)c2ccc3c(c2)CCN(C)[C@H]3CNc2cnccc2C(=O)O)cc1` [Example 13A, (R)-3-(((6-((4-ethylphenyl)(methyl)amino)-2-methyl-1,2,3,4-tetrahydro-isoquinolin-1-yl)methyl)amino)isonicotinic acid] has an IC50 (JMJD2C) of 100 to 1000 nM, an IC50 (Jarid1B) of no more than 100 nM and an IC50 (JMJD3) of 1 to 10 µM. It also gave an IC50 [1] of no more than 100 nM.
Compound `CCc1ccc(N(C)c2ccc3c(c2)CCN(C)[C@@H]3CNc2cnccc2C(=O)O)cc1` [Example 13B, (S)-3-(((6-((4-ethylphenyl)(methyl)amino)-2-methyl-1,2,3,4-tetrahydro-isoquinolin-1-yl)methyl)amino)isonicotinic acid] has an IC50 (JMJD2C) of 100 to 1000 nM, an IC50 (Jarid1B) of no more than 100 nM and an IC50 (JMJD3) of 1 to 10 µM. It also gave an IC50 [1] of no more than 100 nM.
Work on `CCCc1ccc(N(C)c2ccc3c(c2)CCN(C)[C@H]3CNc2cnccc2C(=O)O)cc1` [Example 14A, (R)-3-(((2-methyl-6-(methyl (4-propylphenyl)amino)-1,2,3,4-tetrahydroisoquinolin-1-yl)methyl)amino)isonicotinic acid] yielded an IC50 (JMJD2C) of 1000 to 10000 nM, an IC50 (Jarid1B) of no more than 100 nM and an IC50 (JMJD3) of 1 to 10 µM. It also gave an IC50 [1] of no more than 100 nM.
With `CCCc1ccc(N(C)c2ccc3c(c2)CCN(C)[C@@H]3CNc2cnccc2C(=O)O)cc1` [Example 14B, (S)-3-(((2-methyl-6-(methyl (4-propylphenyl)amino)-1,2,3,4-tetrahydroisoquinolin-1-yl)methyl)amino)isonicotinic acid] the IC50 (JMJD2C) was 1000 to 10000 nM, the IC50 (Jarid1B) was no more than 100 nM and the IC50 (JMJD3) was 1 to 10 µM. The IC50 [1] was no more than 100 nM.
`Cc1ccc(N(C)c2ccc3c(c2)CN(C)[C@H]3CNc2cnccc2C(=O)O)cc1` [Example 18A, (R)-3-(((2-methyl-5-(methyl(p-tolyl)amino)isoindolin-1-yl)methyl)amino) isonicotinic acid] showed an IC50 (JMJD2C) of 100 to 1000 nM, an IC50 (Jarid1B) of no more than 100 nM and an IC50 (JMJD3) of 1 to 10 µM. For the same compound, the IC50 [1] was no more than 100 nM.
`Cc1ccc(N(C)c2ccc3c(c2)CN(C)[C@@H]3CNc2cnccc2C(=O)O)cc1` [Example 18B, (S)-3-(((2-methyl-5-(methyl(p-tolyl)amino)isoindolin-1-yl)methyl)amino) isonicotinic acid] gave an IC50 (JMJD2C) of 100 to 1000 nM, an IC50 (Jarid1B) of no more than 100 nM and an IC50 (JMJD3) of 1 to 10 µM. It also gave an IC50 [1] of no more than 100 nM.
For `CCc1ccc(N(C)c2ccc3c(c2)CN(C)[C@H]3CNc2cnccc2C(=O)O)cc1` [Example 19A, (R)-3-(((5-((4-ethylphenyl)(methyl)amino)-2-methylisoindolin-1-yl)methyl)amino)isonicotinic acid], the IC50 (JMJD2C) was 100 to 1000 nM, the IC50 (Jarid1B) was no more than 100 nM and the IC50 (JMJD3) was 1 to 10 µM. It also gave an IC50 [1] of no more than 100 nM.

From patent publication US10059687B2, “Histone demethylase inhibitors” (CELGENE QUANTICEL RESEARCH, INC., priority 2015, dated 2018)
